From ChEMBL document CHEMBL1201862, “PubChem BioAssay data set” (2004)
Values joined by “and” are separate entries in the source; they are usually repeats but may differ in a detail not shown here. Equal entries are not always repeated.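 Growth conditions: 96-well plates. Treatment: test compound, 48 hours, 5 concentrations. Analysis: linear interpolation between bracketing concentrations; unreached endpoints set to highest concentration. GI50 = concentration required for 50% inhibition of growth.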 Active and inactive are the calls of the source. Rule as the data show it: active = GI50 up to about 1.1 µM and inactive = higher.

Legend:
Assay in all cases: NCI tumour cell line growth inhibition, 48 h
OVCAR-5 = tested on: OVCAR-5
SF-539 = tested on: SF-539
UO-31 = tested on: UO-31
CAKI-1 = tested on: CAKI-1
LOX IMVI = tested on: LOX IMVI
ACHN = tested on: ACHN
KM12 = tested on: KM12
HCT-15 = tested on: HCT-15
SR = tested on: SR
SN12C = tested on: SN12C
TK-10 = tested on: TK-10
PC-3 = tested on: PC-3
SNB-19 = tested on: SNB-19
A549 = tested on: A549
K562 = tested on: K562
Hs-578T = tested on: Hs-578T
SNB-75 = tested on: SNB-75
CCRF-CEM = tested on: CCRF-CEM
DU-145 = tested on: DU-145

Row | SMILES | GI50 (OVCAR-5) | GI50 (SF-539) | GI50 (UO-31) | GI50 (CAKI-1) | GI50 (LOX IMVI) | GI50 (ACHN) | GI50 (KM12) | GI50 (HCT-15) | GI50 (SR) | GI50 (SN12C) | GI50 (TK-10) | GI50 (PC-3) | GI50 (SNB-19) | GI50 (A549) | GI50 (K562) | GI50 (Hs-578T) | GI50 (SNB-75) | GI50 (CCRF-CEM) | GI50 (DU-145)
1 | O=[N+]([O-])c1ccc2c(c1)c(S(=O)(=O)O)cc1nonc12 | > 100 µM (inactive) | > 100 µM (inactive) | > 100 µM (inactive) | > 100 µM (inactive) | > 100 µM (inactive) | > 100 µM (inactive) | > 100 µM (inactive) | > 100 µM | > 100 µM (inactive) | > 100 µM (inactive) | > 100 µM (inactive) | > 100 µM (inactive) | > 100 µM (inactive) | > 100 µM (inactive) | > 100 µM (inactive) | > 100 µM (inactive) | – | – | –
2 | CCn1cc(C(=O)O)c(=O)c2cc(F)c(N3CCNCC3)nc21 [ENOXACIN] | > 100 µM (inactive) | > 100 µM (inactive) | > 100 µM (inactive) | – | 86.3 µM (inactive) | > 100 µM (inactive) | 79.3 µM (inactive) | > 100 µM | 77.8 µM (inactive) | 68.7 µM (inactive) | > 100 µM (inactive) | – | > 100 µM (inactive) | > 100 µM (inactive) | 63.5 µM (inactive) | – | > 100 µM (inactive) | > 100 µM (inactive) | –
3 | COc1cccc(NC(=O)C(C#N)=C(SC)SC)c1 | > 100 µM (inactive) | > 100 µM (inactive) | – | 95.1 µM (inactive) | > 100 µM (inactive) | > 100 µM (inactive) | > 100 µM (inactive) | > 100 µM | – | > 100 µM (inactive) | > 100 µM (inactive) | > 100 µM (inactive) | 57 µM (inactive) | > 100 µM (inactive) | > 100 µM (inactive) | > 100 µM (inactive) | > 100 µM (inactive) | 34 µM (inactive) | –
4 | CO/C(=N\N=C\c1ccc(Cl)c(Cl)c1)c1ccncc1 | > 10 µM (inactive) | > 10 µM (inactive) | > 10 µM (inactive) | > 10 µM (inactive) | > 10 µM (inactive) | 4.99 µM (inactive) | > 10 µM (inactive) | > 10 µM | 2.75 µM (inactive) | > 10 µM (inactive) | > 10 µM (inactive) | > 10 µM (inactive) | > 10 µM (inactive) | > 10 µM (inactive) | > 10 µM (inactive) | – | 9.86 µM (inactive) | > 10 µM (inactive) | –
5 | CC(CCC(=O)O)[C@H]1CCC2[C@H]3C(CC(=O)[C@@]21C)[C@@]1(C)CCC(O)C[C@H]1C[C@@H]3O (stereo partly drawn) | > 100 µM (inactive) | > 100 µM (inactive) | > 100 µM (inactive) | > 100 µM (inactive) | > 100 µM (inactive) | > 100 µM (inactive) | > 100 µM (inactive) | > 100 µM | > 100 µM (inactive) | > 100 µM (inactive) | – | > 100 µM (inactive) | > 100 µM (inactive) | > 100 µM (inactive) | > 100 µM (inactive) | – | > 100 µM (inactive) | > 100 µM (inactive) | > 100 µM (inactive)
6 | O=C(/C=C1/Nc2ccc([N+](=O)[O-])cc2N/C1=C/C(=O)c1ccc(Cl)cc1)c1ccccc1 | > 100 µM (inactive) | 30.3 µM (inactive) | > 100 µM (inactive) | > 100 µM (inactive) | – | > 100 µM (inactive) | > 100 µM (inactive) | > 100 µM | > 100 µM (inactive) | > 100 µM (inactive) | 59 µM (inactive) | > 100 µM (inactive) | 37 µM (inactive) | > 100 µM (inactive) | 55.8 µM (inactive) | – | 19.9 µM (inactive) | 64.7 µM (inactive) | > 100 µM (inactive)
7 | CCCCCCOC(=O)/C=C/[C@]1(CO)C/C(=C/CC(C(C)C)C(C)C)C(=O)O1 | 11.6 µM (inactive) | – | 4.46 µM (inactive) | 10.9 µM (inactive) | 10.6 µM (inactive) | 6.95 µM (inactive) | 16 µM (inactive) | 14.6 µM | – | – | 1.77 µM (inactive) | 11.5 µM (inactive) | 10.5 µM (inactive) | 2.99 µM (inactive) | 0.406 µM (active) | 4.75 µM (inactive) | 14.2 µM (inactive) | – | 18.2 µM (inactive)
8 | [O-][S+]1c2ccccc2SCSc2ccccc21 | > 100 µM (inactive) | > 100 µM (inactive) | > 100 µM (inactive) | > 100 µM (inactive) | – | > 100 µM (inactive) | > 100 µM (inactive) | > 100 µM | 46.2 µM (inactive) | > 100 µM (inactive) | > 100 µM (inactive) | > 100 µM (inactive) | > 100 µM (inactive) | > 100 µM (inactive) | 16.7 µM (inactive) | – | – | – | > 100 µM (inactive)
9 | O=C(/C=C/c1ccccc1)c1ccccn1 | – | 17.8 µM (inactive) | 17.3 µM (inactive) and 20.6 µM (inactive) | 26.2 µM (inactive) and 16.6 µM (inactive) | 10.9 µM (inactive) and 17.6 µM (inactive) | 15.5 µM (inactive) and 16.9 µM (inactive) | 19.1 µM (inactive) and 14.4 µM (inactive) | 11.8 µM and 18.5 µM | – | 14.3 µM (inactive) and 17.2 µM (inactive) | 19 µM (inactive) and 15.2 µM (inactive) | 19.1 µM (inactive) and 21.1 µM (inactive) | – | 19.4 µM (inactive) and 32.6 µM (inactive) | – | 22.6 µM (inactive) | 24.5 µM (inactive) and 16 µM (inactive) | 10 µM (inactive) and 17.1 µM (inactive) | 12.4 µM (inactive) and 18.3 µM (inactive)
10 | O=C(Cc1ccccc1)NN1C(=O)/C(=C\c2cccc(O)c2)S/C1=N\c1ccccc1 | > 100 µM (inactive) | > 100 µM (inactive) | 55.8 µM (inactive) | – | – | > 100 µM (inactive) | > 100 µM (inactive) | > 100 µM | – | > 100 µM (inactive) | > 100 µM (inactive) | – | > 100 µM (inactive) | > 100 µM (inactive) | – | > 100 µM (inactive) | > 100 µM (inactive) | – | > 100 µM (inactive)
11 | O=S(=O)(O)c1cc(S(=O)(=O)O)c2cc(/N=N/c3c(O)ccc4ccccc34)ccc2c1 | > 100 µM (inactive) | – | > 100 µM (inactive) | > 100 µM (inactive) | > 100 µM (inactive) | > 100 µM (inactive) | > 100 µM (inactive) | > 100 µM | – | > 100 µM (inactive) | > 100 µM (inactive) | > 100 µM (inactive) | > 100 µM (inactive) | > 100 µM (inactive) | > 100 µM (inactive) | > 100 µM (inactive) | > 100 µM (inactive) | > 100 µM (inactive) | > 100 µM (inactive)
12 | COc1ccc(-n2c(CCCC(=O)O)nc3c2C(=O)c2ccccc2C3=O)cc1 | > 100 µM (inactive) | > 100 µM (inactive) | > 100 µM (inactive) | > 100 µM (inactive) | 54.8 µM (inactive) | 71.3 µM (inactive) | 64.1 µM (inactive) | 44.5 µM | 66.8 µM (inactive) | 54.6 µM (inactive) | > 100 µM (inactive) | – | > 100 µM (inactive) | > 100 µM (inactive) | 47.3 µM (inactive) | > 100 µM (inactive) | 89.5 µM (inactive) | 36.3 µM (inactive) | 92 µM (inactive)
13 | NC12CC3CC4C1CC1CC2C(C3)C4(N)C1 | > 100 µM (inactive) | – | > 100 µM (inactive) | > 100 µM (inactive) | > 100 µM (inactive) | > 100 µM (inactive) | > 100 µM (inactive) | > 100 µM | – | > 100 µM (inactive) | 50.7 µM (inactive) | > 100 µM (inactive) | > 100 µM (inactive) | > 100 µM (inactive) | > 100 µM (inactive) | > 100 µM (inactive) | – | > 100 µM (inactive) | > 100 µM (inactive)
14 | Sc1nnc(CNc2ccc(-c3nnc(S)n3-c3ccc(Cl)cc3)cc2)n1-c1ccc(Cl)cc1 | 18.1 µM (inactive) | – | 16.4 µM (inactive) | 19.4 µM (inactive) | – | 47.5 µM (inactive) | 18.5 µM (inactive) | 48 µM | – | 24.2 µM (inactive) | 37.2 µM (inactive) | 36 µM (inactive) | 26.5 µM (inactive) | 31.6 µM (inactive) | 30.8 µM (inactive) | – | 39.7 µM (inactive) | – | 30.5 µM (inactive)
15 | COC1=CC(=O)C2=C(C[C@@]3(C)C(=C2)C(CO)=CC[C@H]3O)C1=O | 27 µM (inactive) | 18.8 µM (inactive) | 20 µM (inactive) | 73.3 µM (inactive) | 17.1 µM (inactive) | 18.2 µM (inactive) | 31.4 µM (inactive) | 27.5 µM | – | 17.8 µM (inactive) | 98.2 µM (inactive) | 28.2 µM (inactive) | 68.1 µM (inactive) | 33.7 µM (inactive) | 2.57 µM (inactive) | 30.9 µM (inactive) | – | 4.04 µM (inactive) | 38.9 µM (inactive)
16 | Cc1ccc2c(=O)cc(Cc3csc4ccccc34)[nH]c2n1 | 60 µM (inactive) | – | 22.4 µM (inactive) | 44.3 µM (inactive) | 17.5 µM (inactive) | – | 21.3 µM (inactive) | 12.1 µM | – | 42.9 µM (inactive) | 53.5 µM (inactive) | 67 µM (inactive) | 39.7 µM (inactive) | 27.4 µM (inactive) | 43.5 µM (inactive) | 12.7 µM (inactive) | 16.6 µM (inactive) | 41.4 µM (inactive) | 50.9 µM (inactive)
17 | O=[N+]([O-])c1cc(C2SCc3nc4ccccc4n32)ccc1Cl (stereo not drawn) | 14.3 µM (inactive) | 27.8 µM (inactive) | 18.5 µM (inactive) | 33.3 µM (inactive) | – | 27.5 µM (inactive) | 16.7 µM (inactive) | – | 30.2 µM (inactive) | 12 µM (inactive) | 47.5 µM (inactive) | – | 45.9 µM (inactive) | 33.1 µM (inactive) | 17.1 µM (inactive) | – | 28.7 µM (inactive) | 24.9 µM (inactive) | –
